In ChEMBL document CHEMBL5665443, “Enzyme Inhibitor Single Concentration assay results for EUbOPEN Chemogenomics Library” (2024):

Columns and labels:
Details in all cases: Hit No
[1] = target: T1, Single-strand selective monofunctional uracil DNA glycosylase (Homo sapiens) (UniProt Q53HV7);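 note: enzymatic SMUG1 assay coupled with APE1, reading fluorescence at 594 nm released when a quenched double-stranded DNA oligonucleotide substrate is cleaved and separated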
T1 sequence (whole entry): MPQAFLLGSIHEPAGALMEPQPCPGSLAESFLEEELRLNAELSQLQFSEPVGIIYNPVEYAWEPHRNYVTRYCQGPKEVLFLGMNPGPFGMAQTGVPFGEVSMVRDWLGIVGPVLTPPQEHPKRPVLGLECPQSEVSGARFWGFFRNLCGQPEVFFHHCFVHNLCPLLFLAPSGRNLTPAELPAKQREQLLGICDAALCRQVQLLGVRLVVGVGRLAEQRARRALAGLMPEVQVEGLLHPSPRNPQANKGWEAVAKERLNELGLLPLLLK
Description: Inhibition of SMUG1 by quantifying inhibition of SMUG1-mediated cleavage and dissociation of quenched duplex DNA oligonucleotides, measured as fluorescence at 594 nm. To generate a functional strand incision and increase turn-over this assay is coupled to APE1.

[2] = target: T2, Endonuclease 8-like 2 (Homo sapiens) (UniProt Q969S2);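 note: fluorescence at 594 nm reports NEIL2 cutting and release of a quenched double-stranded DNA oligo substrate, reduced signal read as inhibition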
T2 sequence (whole entry): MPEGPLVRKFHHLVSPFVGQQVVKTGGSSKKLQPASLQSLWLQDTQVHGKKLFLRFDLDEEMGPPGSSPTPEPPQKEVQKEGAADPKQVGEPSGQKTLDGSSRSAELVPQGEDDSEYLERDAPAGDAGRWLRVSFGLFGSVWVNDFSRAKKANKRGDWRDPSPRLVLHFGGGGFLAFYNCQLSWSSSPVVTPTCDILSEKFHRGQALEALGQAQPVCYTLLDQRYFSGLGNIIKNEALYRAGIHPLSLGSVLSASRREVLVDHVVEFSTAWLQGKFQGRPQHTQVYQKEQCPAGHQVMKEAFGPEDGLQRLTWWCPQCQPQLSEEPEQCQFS
Description: Inhibition of NEIL2 by quantifying inhibition of NEIL2-mediated cleavage and dissociation of quenched duplex DNA oligonucleotides, measured as fluorescence at 594 nm.

[3] = target: T3, Endonuclease III-like protein 1 (Homo sapiens) (UniProt P78549);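 note: enzyme assay tracking NTHL1 cutting and release of a quenched double-stranded DNA oligo substrate, read as fluorescence at 594 nm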
T3 sequence (whole entry): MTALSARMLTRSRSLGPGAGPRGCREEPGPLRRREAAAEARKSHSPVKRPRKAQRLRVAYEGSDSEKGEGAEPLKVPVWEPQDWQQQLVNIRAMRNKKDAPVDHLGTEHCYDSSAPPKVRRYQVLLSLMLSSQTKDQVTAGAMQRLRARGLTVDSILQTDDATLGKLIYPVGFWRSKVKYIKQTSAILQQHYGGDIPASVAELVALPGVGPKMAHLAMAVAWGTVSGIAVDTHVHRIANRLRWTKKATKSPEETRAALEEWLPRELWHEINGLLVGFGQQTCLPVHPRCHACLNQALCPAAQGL
Description: Inhibition of NTHL1 by quantifying inhibition of NTHL1-mediated cleavage and dissociation of quenched duplex DNA oligonucleotides, measured as fluorescence at 594 nm.

[4] = target: G/T mismatch-specific thymine DNA glycosylase (Homo sapiens) (UniProt Q13569);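 note: human TDG cleavage of quenched duplex DNA oligonucleotides coupled to APE1, strand release read as fluorescence at 594 nm, inhibition of TDG activity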
G/T mismatch-specific thymine DNA glycosylase (Homo sapiens), sequence (Q13569 whole entry): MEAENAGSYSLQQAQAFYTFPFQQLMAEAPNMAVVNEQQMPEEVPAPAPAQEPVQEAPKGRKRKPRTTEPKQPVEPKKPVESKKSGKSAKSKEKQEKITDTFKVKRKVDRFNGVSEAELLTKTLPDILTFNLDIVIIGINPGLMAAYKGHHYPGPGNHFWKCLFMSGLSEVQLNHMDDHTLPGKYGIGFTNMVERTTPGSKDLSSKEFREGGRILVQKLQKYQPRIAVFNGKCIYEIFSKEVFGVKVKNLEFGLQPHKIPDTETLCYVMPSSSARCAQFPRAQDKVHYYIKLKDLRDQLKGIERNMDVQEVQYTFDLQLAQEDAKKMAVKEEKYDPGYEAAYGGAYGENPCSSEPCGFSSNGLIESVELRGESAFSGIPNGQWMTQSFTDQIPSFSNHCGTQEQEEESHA
Description: Inhibition of TDG by quantifying inhibition of TDG-mediated cleavage and dissociation of quenched duplex DNA oligonucleotides, measured as fluorescence at 594 nm. To generate a functional strand incision and increase turn-over this assay is coupled to APE1.

[5] = target: Uracil-DNA glycosylase (Homo sapiens) (UniProt P13051);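 note: UNG excision on a quenched double-stranded DNA oligo probe, with APE1 added for strand incision and turnover, read as fluorescence at 594 nm as strands separate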
Uracil-DNA glycosylase (Homo sapiens), sequence (P13051 whole entry, the tested form may be a part): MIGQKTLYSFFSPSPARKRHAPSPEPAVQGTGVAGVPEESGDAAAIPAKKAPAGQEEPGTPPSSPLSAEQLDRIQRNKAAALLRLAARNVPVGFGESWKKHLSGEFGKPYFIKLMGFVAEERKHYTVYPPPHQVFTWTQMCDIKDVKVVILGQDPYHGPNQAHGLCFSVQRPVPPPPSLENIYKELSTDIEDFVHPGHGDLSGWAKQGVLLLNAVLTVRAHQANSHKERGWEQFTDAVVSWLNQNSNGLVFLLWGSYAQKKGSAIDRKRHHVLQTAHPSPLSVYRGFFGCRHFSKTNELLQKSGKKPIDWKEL
Description: Inhibition of UNG by quantifying inhibition of UNG-mediated cleavage and dissociation of quenched duplex DNA oligonucleotides, measured as fluorescence at 594 nm. To generate a functional strand incision and increase turn-over this assay is coupled to APE1.

[6] = target: Methyl-CpG-binding domain protein 4 (Homo sapiens) (UniProt O95243);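 note: MBD4 activity read as fluorescence at 594 nm from cleavage and release of a quenched duplex DNA oligonucleotide, with APE1 coupled to incise the strand and raise turnover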
Methyl-CpG-binding domain protein 4 (Homo sapiens), sequence (O95243 whole entry, the tested form may be a part): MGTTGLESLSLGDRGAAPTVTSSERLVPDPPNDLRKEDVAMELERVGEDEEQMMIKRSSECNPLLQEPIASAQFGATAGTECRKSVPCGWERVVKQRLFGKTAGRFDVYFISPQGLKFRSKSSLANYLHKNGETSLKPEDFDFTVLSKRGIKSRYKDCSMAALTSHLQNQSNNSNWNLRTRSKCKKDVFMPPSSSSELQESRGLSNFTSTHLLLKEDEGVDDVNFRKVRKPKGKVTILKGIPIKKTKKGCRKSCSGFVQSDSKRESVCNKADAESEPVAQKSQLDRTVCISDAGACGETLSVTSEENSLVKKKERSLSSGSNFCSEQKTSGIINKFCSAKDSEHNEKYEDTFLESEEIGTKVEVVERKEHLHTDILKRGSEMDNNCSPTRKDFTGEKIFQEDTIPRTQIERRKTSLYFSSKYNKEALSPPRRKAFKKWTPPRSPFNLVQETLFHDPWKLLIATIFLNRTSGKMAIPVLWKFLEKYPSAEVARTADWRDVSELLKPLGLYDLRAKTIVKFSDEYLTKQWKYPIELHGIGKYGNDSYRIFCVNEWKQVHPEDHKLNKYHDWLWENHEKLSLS
Description: Inhibition of MBD4 by quantifying inhibition of MBD4-mediated cleavage and dissociation of quenched duplex DNA oligonucleotides, measured as fluorescence at 594 nm. To generate a functional strand incision and increase turn-over this assay is coupled to APE1.

[7] = target: N-glycosylase/DNA lyase (Homo sapiens) (UniProt O15527);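 note: OGG1 cleavage of a quenched duplex DNA oligonucleotide, coupled to APE1 for strand incision, read as fluorescence at 594 nm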
N-glycosylase/DNA lyase (Homo sapiens), sequence (O15527 whole entry): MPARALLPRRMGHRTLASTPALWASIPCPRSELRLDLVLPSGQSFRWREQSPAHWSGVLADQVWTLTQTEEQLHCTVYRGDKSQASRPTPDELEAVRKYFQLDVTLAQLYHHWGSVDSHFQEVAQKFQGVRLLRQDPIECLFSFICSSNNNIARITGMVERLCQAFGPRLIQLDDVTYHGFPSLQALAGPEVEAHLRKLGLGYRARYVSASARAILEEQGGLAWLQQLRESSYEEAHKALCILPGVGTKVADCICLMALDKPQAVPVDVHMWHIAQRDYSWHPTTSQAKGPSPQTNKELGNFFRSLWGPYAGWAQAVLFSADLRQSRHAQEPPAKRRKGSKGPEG
Description: Inhibition of OGG1 by quantifying inhibition of OGG1-mediated cleavage and dissociation of quenched duplex DNA oligonucleotides, measured as fluorescence at 594 nm. To generate a functional strand incision and increase turn-over this assay is coupled to APE1.

[8] = target: Endonuclease 8-like 1 (Homo sapiens) (UniProt Q96FI4);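 note: fluorescence at 594 nm from quenched duplex DNA oligonucleotides released by NEIL1 cleavage and strand separation, reported as reduction of this enzyme activity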
Endonuclease 8-like 1 (Homo sapiens), sequence (Q96FI4 whole entry): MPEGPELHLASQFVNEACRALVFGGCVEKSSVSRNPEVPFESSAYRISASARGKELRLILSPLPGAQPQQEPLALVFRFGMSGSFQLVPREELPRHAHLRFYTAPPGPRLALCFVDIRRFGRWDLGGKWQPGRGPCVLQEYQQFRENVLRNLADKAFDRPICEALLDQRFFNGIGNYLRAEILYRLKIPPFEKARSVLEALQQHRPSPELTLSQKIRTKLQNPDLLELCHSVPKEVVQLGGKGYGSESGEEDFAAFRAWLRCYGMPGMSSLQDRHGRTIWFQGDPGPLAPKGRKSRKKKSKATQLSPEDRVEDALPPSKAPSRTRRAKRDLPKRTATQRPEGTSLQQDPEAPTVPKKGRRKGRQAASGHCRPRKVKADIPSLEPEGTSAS
Description: Inhibition of NEIL1 by quantifying inhibition of NEIL1-mediated cleavage and dissociation of quenched duplex DNA oligonucleotides, measured as fluorescence at 594 nm.

[9] = target: T4, Adenine DNA glycosylase (Homo sapiens) (UniProt Q9UIF7);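 note: human MUTYH activity read as 594 nm fluorescence from cleavage and release of a quenched DNA duplex, coupled with APE1 for strand incision, lower signal meaning inhibition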
T4 sequence (whole entry): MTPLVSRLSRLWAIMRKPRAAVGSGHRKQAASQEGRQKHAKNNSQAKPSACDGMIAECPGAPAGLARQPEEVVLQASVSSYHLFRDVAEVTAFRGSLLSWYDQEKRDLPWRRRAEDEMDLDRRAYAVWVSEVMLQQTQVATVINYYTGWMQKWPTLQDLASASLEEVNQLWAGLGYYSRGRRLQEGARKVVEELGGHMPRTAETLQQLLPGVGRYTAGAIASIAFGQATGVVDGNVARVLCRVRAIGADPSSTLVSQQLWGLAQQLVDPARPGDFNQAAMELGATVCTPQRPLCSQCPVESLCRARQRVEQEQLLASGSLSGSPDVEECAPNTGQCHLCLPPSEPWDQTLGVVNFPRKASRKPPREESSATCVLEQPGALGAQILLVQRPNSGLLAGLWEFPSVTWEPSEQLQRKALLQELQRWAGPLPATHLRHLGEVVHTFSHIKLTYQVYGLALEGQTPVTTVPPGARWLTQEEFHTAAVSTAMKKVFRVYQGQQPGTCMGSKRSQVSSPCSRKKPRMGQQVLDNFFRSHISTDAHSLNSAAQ
Description: Inhibition of MUTYH by quantifying inhibition of MUTYH-mediated cleavage and dissociation of quenched duplex DNA oligonucleotides, measured as fluorescence at 594 nm. To generate a functional strand incision and increase turn-over this assay is coupled to APE1.

Compound | inhibition ([1]; Compound Concentration 1.0 uM) | inhibition ([1]; Compound Concentration 10.0 uM) | inhibition ([2]; Compound Concentration 1.0 uM) | inhibition ([3]; Compound Concentration 1.0 uM) | inhibition ([3]; Compound Concentration 10.0 uM) | inhibition ([4]; Compound Concentration 1.0 uM) | inhibition ([4]; Compound Concentration 10.0 uM) | inhibition ([5]; Compound Concentration 1.0 uM) | inhibition ([5]; Compound Concentration 10.0 uM) | inhibition ([6]; Compound Concentration 1.0 uM) | inhibition ([6]; Compound Concentration 10.0 uM) | inhibition ([7]; Compound Concentration 10.0 uM) | inhibition ([8]; Compound Concentration 1.0 uM) | inhibition ([8]; Compound Concentration 10.0 uM) | inhibition ([9]; Compound Concentration 10.0 uM) | inhibition ([2]; Compound Concentration 10.0 uM) | inhibition ([7]; Compound Concentration 1.0 uM) | inhibition ([9]; Compound Concentration 1.0 uM)
Cc1ccc(-c2cnc([C@@]3(O)CC[C@H](C(=O)O)C(C)(C)C3)s2)cc1Nc1cccc(C(F)(F)F)n1 | 6.55% | 11.6% | 1.58% | -6.89% | -1.95% | 36.9% | 58.3% | -2.23% | 2.77% | 1.64% | 60.9% | 5.44% | -1.05% | -8.92% | 13.4% | – | – | –
O=C(O)c1ccc2c(c1)nc(Nc1cccc(Cl)c1)c1ccncc12 | – | 17.2% | – | – | 2.18% | – | 97.5% | – | -6.1% | – | -3.96% | 6.06% | – | -4.62% | 11.4% | -9.73% | – | –
CC(=O)Nc1ncc(CN2CCC[C@H](Cc3cc(C)nc(C)c3)C2)s1 | – | 18.4% | – | – | -3.26% | – | 48.4% | – | 6.88% | – | 96.5% | 2.54% | – | 1.53% | 9.89% | -5.08% | – | –
CC1(C)CCC(C)(C)c2cc(C(=O)Nc3ccc(C(=O)O)cc3)ccc21 | – | 16.9% | – | – | 2.66% | – | 100% | – | 5.57% | – | 58.8% | 27.8% | – | -3.17% | 14.4% | -6.36% | – | –
CCOP(=O)(OCC)C(=Cc1cc(C(C)(C)C)c(O)c(C(C)(C)C)c1)P(=O)(OCC)OCC | – | 3.52% | – | – | 12.5% | – | 58.6% | – | -4.58% | – | 49.5% | -1.84% | – | -3.17% | 14.5% | 11.2% | – | –
NC1(c2ccc(-c3nc4c(O)ccnn4c3-c3ccccc3)cc2)CCC1 | 19.9% | 19.3% | -0.489% | -7.86% | – | 59.1% | 52.1% | 7.66% | -0.0214% | 76.1% | 29% | – | -7.26% | -6.47% | 14.3% | -3.27% | 10.4% | 23.6%
CC(C)c1ccc(CC(=O)N2CCC[C@@H](c3cccc(OC(C)(C)C(=O)O)c3)C2)cc1 | – | 12.4% | – | – | 8.57% | – | 47.9% | – | 3.87% | – | 54.2% | -4.05% | – | -5.29% | -0.105% | 4.61% | – | –
CN(C)CC#Cc1ccc2[nH]c3c(c2c1)-c1nc(N)ncc1CCC3 | 11.2% | – | 4.81% | 10.6% | – | 46.8% | – | 3.22% | – | 3.44% | – | – | 2.65% | – | – | – | 3.18% | 1.71%
CC(C)(O)CNc1ncc(-c2ccnc(Nc3ccnc(Cl)c3)n2)c(CC2CC2)n1 | – | 21.2% | – | – | 5.67% | – | 44.6% | – | -2.03% | – | -8.47% | -4.97% | – | -7.52% | 0.0658% | -9.73% | – | –
CCc1ccc(N(CC(C)C)S(=O)(=O)c2ccc(OCC3CCOCC3)c(CO)c2)cc1 | – | 18.3% | – | – | -1.95% | – | 98.5% | – | 5.13% | – | 69.4% | 9.77% | – | -7.41% | 7% | -1.25% | – | –
Cc1nc(C2CCN(C(=O)c3ccc(OC(F)(F)F)cc3N)CC2)c2ncc(N3CCN(C)CC3)cc2n1 | – | 17.5% | – | – | -0.379% | – | 61.5% | – | 7.52% | – | 30.1% | 7.7% | – | -5.75% | 9.15% | -4.68% | – | –
CN(CCOc1ccc(C[C@H](Nc2ccccc2C(=O)c2ccccc2)C(=O)O)cc1)c1ccccn1 | – | 8.44% | – | – | -4.57% | – | 30.8% | – | -0.00636% | – | 67% | 24.7% | – | 5.16% | -3.55% | 4.36% | – | –
Cc1ccccc1Oc1cc(-n2c(=O)cc(C(F)(F)F)[nH]c2=O)c2ccccc2c1Cl | – | 29.1% | – | – | -1.29% | – | 54.4% | – | -2.65% | – | 68.2% | 50.6% | – | 7.74% | 0.715% | -1.25% | – | –
C[C@@H]1CCc2ncc(F)cc2[C@H]2CCCN2c2ccn3ncc(c3n2)C(=O)N1 | – | 26.7% | – | – | -1.31% | – | 40.3% | – | 4.92% | – | 0.277% | 2.29% | – | 2.25% | 17.4% | -1.65% | – | –
Nc1ncnc2c1ncn2[C@@H]1O[C@H](CO)[C@@H](O)[C@H]1O | – | -2.21% | – | – | 2.66% | – | 6.82% | – | -7.49% | – | -3.22% | -6.13% | – | 8.25% | 17.8% | 2.76% | – | –
